16 molecules from ChEMBL document CHEMBL3822455, “Aryl or heteroaryl substituted aminal derivatives of HCV NS5A inhibitor MK-8742” (Bioorg Med Chem Lett, 2016) can be followed below.

Bounds are passed on as bounds.

The subject of series [1] is Hepatitis C virus. As to the kind of experiment: Antiviral activity against HCV genotype 1a assessed as replicon RNA level measured after 3 days by real-time PCR method. As to conditions: subtype 1a, 72 h. In kind it is functional, organism-based, Hepacivirus hominis. (In general: Replicon systems follow genome replication, usually without infectious particles.)
Series [2] relates to Hepatitis C virus. As to the kind of experiment: Antiviral activity against HCV genotype 1b assessed as replicon RNA level measured after 3 days by real-time PCR method. In kind it is functional, organism-based, Hepacivirus hominis. To be noted: 72 h.
Series [3] deals with Hepatitis C virus. Put plainly: Antiviral activity against HCV genotype 2a assessed as replicon RNA level measured after 3 days by real-time PCR method. In kind it is functional, organism-based, Hepacivirus hominis. As to conditions: 72 h.
The subject of series [4] is Hepatitis C virus. As to the kind of experiment: Antiviral activity against HCV genotype 3a assessed as replicon RNA level measured after 3 days by real-time PCR method. In kind it is functional, organism-based, Hepacivirus hominis. To be noted: 72 h.
The subject of series [5] is Hepatitis C virus. Put plainly: Antiviral activity against HCV genotype 4a assessed as replicon RNA level measured after 3 days by real-time PCR method. As to conditions: 72 h. In kind it is functional, organism-based, Hepacivirus hominis.
The test system of series [6] is Hepatitis C virus. Put plainly: Antiviral activity against HCV genotype 1a harboring NS5A Y93H mutant assessed as replicon RNA level measured after 3 days by real-time PCR method. In kind it is functional, organism-based, Hepacivirus hominis. To be noted: subtype 1a, 72 h.
In series [7] the test system is Hepatitis C virus. Put plainly: Antiviral activity against HCV genotype 1a harboring NS5A L31V mutant assessed as replicon RNA level measured after 3 days by real-time PCR method. In kind it is functional, organism-based, Hepacivirus hominis. As to conditions: subtype 1a, 72 h.
A short description of series [8]: AUC in Sprague-Dawley rat at 5 mg/kg, po. In kind it is ADME, organism-based. As to conditions: Sprague-Dawley, in vivo.
Series [9] in a line: Half life in Sprague-Dawley rat at 2 mg/kg, iv or 5 mg/kg, po. In kind it is ADME, organism-based. As to conditions: in vivo.
Series [10] in a line: Clearance in Sprague-Dawley rat at 2 mg/kg, iv or 5 mg/kg, po. In kind it is ADME, organism-based. As to conditions: in vivo.
Series [11] can be described thus: Oral bioavailability in Sprague-Dawley rat at 5 mg/kg. In kind it is ADME, organism-based. As to conditions: Sprague-Dawley, in vivo.
Series [12] concerns Hepatitis C virus. Put plainly: Antiviral activity against HCV genotype 2b assessed as replicon RNA level measured after 3 days by real-time PCR method. In kind it is functional, organism-based, Hepacivirus hominis. As to conditions: 72 h.

Consider `COC(=O)N[C@H](C(=O)N1CCC[C@H]1c1ncc(-c2ccc3c(c2)OC(c2ccc(Cl)cc2)n2c-3cc3cc(-c4cnc([C@@H]5CCCN5C(=O)[C@@H](NC(=O)OC)C(C)C)[nH]4)ccc32)[nH]1)C(C)C` (stereo partly specified), for which the EC50 (usually the concentration at which the effect is half-maximal) amounted to 0.009 nM in series [1]; 0.01 nM in [2]; 0.005 nM in series [3]; 0.04 nM in series [4]; 0.01 nM in series [5]; 5 nM in [6]. Moreover, in series [7], the EC50 was 0.3 nM. In addition, the AUC (usually concentration integrated over time) in [8] was 0.88 µM·h. The half-life (usually how long it takes for the measured level to halve) in series [9] is 4.5 h. This molecule returned a clearance in series [10] of 10 mL/min/kg. For the same molecule, in series [11], the bioavailability (in general, dose-corrected exposure relative to a reference, in per cent) stood at 10%.
Regarding `COC(=O)N[C@H](C(=O)N1CCC[C@H]1c1ncc(-c2ccc3c(c2)OC(c2cccc(OC(F)(F)F)c2)n2c-3cc3cc(-c4cnc([C@@H]5CCCN5C(=O)[C@@H](NC(=O)OC)C(C)C)[nH]4)ccc32)[nH]1)C(C)C` (mixture of isomers), the EC50 in series [1] turned out to be 0.005 nM; in series [2] it was 0.003 nM; in series [3] it was 0.003 nM; in series [12], 3 nM; in series [4], 0.03 nM; in [5] it was 0.01 nM. The EC50 came out at 6.2 nM in [6] and 0.2 nM in series [7].
On to `CCOc1cccc(C2Oc3cc(-c4cnc([C@@H]5CCCN5C(=O)[C@@H](NC(=O)OC)C(C)C)[nH]4)ccc3-c3cc4cc(-c5cnc([C@@H]6CCCN6C(=O)[C@@H](NC(=O)OC)C(C)C)[nH]5)ccc4n32)c1` (mixture of isomers), for which the EC50 is 0.02 nM in series [1]; 0.001 nM in series [2]; 0.01 nM in series [3]; 0.4 nM in series [12]; 0.05 nM in [4]; 0.0005 nM in series [5]. Further, the EC50 was 1.8 nM in [6] and 0.2 nM in [7].
As for `COC(=O)N[C@H](C(=O)N1CCC[C@H]1c1ncc(-c2ccc3c(c2)OC(c2cccc(C(=O)O)c2)n2c-3cc3cc(-c4cnc([C@@H]5CCCN5C(=O)[C@@H](NC(=O)OC)C(C)C)[nH]4)ccc32)[nH]1)C(C)C` (mixture of isomers), the EC50 in series [1] was 2.83 nM; in series [2] it was 2.4 nM; in [3], 11.8 nM; in series [12], more than 1000 nM; in series [4] it was 290 nM; in series [5], 5.15 nM. Moreover, the values for the half-maximal effective concentration (EC50) in series [6] and in series [7] were more than 1000 nM and 212 nM, respectively.
`COC(=O)N[C@H](C(=O)N1CCC[C@H]1c1ncc(-c2ccc3c(c2)OC(c2ccc(-c4cncnc4)cc2)n2c-3cc3cc(-c4cnc([C@@H]5CCCN5C(=O)[C@@H](NC(=O)OC)C(C)C)[nH]4)ccc32)[nH]1)C(C)C` (mixture of isomers): the EC50 amounted to 0.07 nM in series [1]; 0.023 nM in series [2]; 0.04 nM in series [3]; 13 nM in [12]; 1 nM in [4]; 0.04 nM in series [5]. In addition, the EC50 turned out to be 70 nM in [6] and 10 nM in series [7].
`COC(=O)N[C@H](C(=O)N1CCC[C@H]1c1ncc(-c2ccc3c(c2)OC(c2ccc(OC)cc2)n2c-3cc3cc(-c4cnc([C@@H]5CCCN5C(=O)[C@@H](NC(=O)OC)C(C)C)[nH]4)ccc32)[nH]1)C(C)C` (mixture of isomers): the EC50 was 0.01 nM in series [1]; 0.007 nM in [2]; 0.004 nM in series [3]; 0.8 nM in series [12]; 0.07 nM in [4]; 0.008 nM in series [5]. Further, the EC50 was 15 nM in series [6] and 0.3 nM in series [7].
Consider `COC(=O)N[C@H](C(=O)N1CCC[C@H]1c1ncc(-c2ccc3c(c2)OC(c2ccc(-c4cccc(-c5ccccc5)c4)cc2)n2c-3cc3cc(-c4cnc([C@@H]5CCCN5C(=O)[C@@H](NC(=O)OC)C(C)C)[nH]4)ccc32)[nH]1)C(C)C` (mixture of isomers), for which the EC50 in series [1] is less than 0.02 nM; in [2], 0.003 nM; in [3], less than 0.02 nM; in series [12], less than 2 nM; in series [4], 0.2 nM; in series [5], less than 0.02 nM. Moreover, the EC50 in series [6] was 2 nM; in series [7], less than 2 nM.
As to `COC(=O)N[C@H](C(=O)N1CCC[C@H]1c1ncc(-c2ccc3c(c2)OC(c2ccc(-c4ccncc4)cc2)n2c-3cc3cc(-c4cnc([C@@H]5CCCN5C(=O)[C@@H](NC(=O)OC)C(C)C)[nH]4)ccc32)[nH]1)C(C)C` (mixture of isomers), the EC50 in series [1] was 0.003 nM; in series [2] it was 0.004 nM; in series [3], less than 0.2 nM; in series [12], less than 2 nM; in [4] it was 0.1 nM; in [5], 0.02 nM. Further, the EC50 in [6] was determined as 19 nM; in [7], 0.3 nM.
`COC(=O)N[C@H](C(=O)N1CCC[C@H]1c1ncc(-c2ccc3c(c2)OC(c2ccc(-c4ccccc4)cc2)n2c-3cc3cc(-c4cnc([C@@H]5CCCN5C(=O)[C@@H](NC(=O)OC)C(C)C)[nH]4)ccc32)[nH]1)C(C)C` (mixture of isomers): the EC50 in series [1] is less than 0.02 nM; in series [2] it was less than 0.02 nM; in series [3] it was less than 0.2 nM; in series [12], less than 2 nM; in [4] it was less than 0.2 nM; in series [5], less than 0.02 nM. Besides, the EC50 in [6] and in series [7] was less than 2 nM each time.
With `COC(=O)N[C@H](C(=O)N1CCC[C@H]1c1ncc(-c2ccc3c(c2)OC(c2ccc(-c4ccc(-c5ccccc5)cc4)cc2)n2c-3cc3cc(-c4cnc([C@@H]5CCCN5C(=O)[C@@H](NC(=O)OC)C(C)C)[nH]4)ccc32)[nH]1)C(C)C` (mixture of isomers), the EC50 in [1] was found to be 0.001 nM; in [2] it was 0.002 nM; in [3], 0.003 nM; in series [12], 0.06 nM; in series [4] it was 0.1 nM; in [5], 0.001 nM. Further, the half-maximal effective concentration (EC50) in [6] was less than 2 nM; in [7] it was 0.06 nM.
As to `COC(=O)N[C@H](C(=O)N1CCC[C@H]1c1ncc(-c2ccc3c(c2)OC(c2cccc(C(N)=O)c2)n2c-3cc3cc(-c4cnc([C@@H]5CCCN5C(=O)[C@@H](NC(=O)OC)C(C)C)[nH]4)ccc32)[nH]1)C(C)C` (mixture of isomers), the half-maximal effective concentration (EC50) in series [1] was 0.09 nM; in [2], 0.01 nM; in [3], 0.51 nM; in series [12], more than 100 nM; in [4] it was more than 1 nM; in series [5], more than 1 nM. In addition, the EC50 in series [6] was found to be 19 nM; in series [7] it was 7 nM.
Turning to `COC(=O)N[C@H](C(=O)N1CCC[C@H]1c1ncc(-c2ccc3c(c2)OC(c2ccc(C#N)cc2)n2c-3cc3cc(-c4cnc([C@@H]5CCCN5C(=O)[C@@H](NC(=O)OC)C(C)C)[nH]4)ccc32)[nH]1)C(C)C` (mixture of isomers), the EC50 was determined as 0.004 nM in series [1]; 0.003 nM in [2]; 0.006 nM in series [3]; 6.5 nM in series [12]; 0.25 nM in [4]; 0.01 nM in series [5]. Moreover, the EC50 in [6] was determined as 12 nM; in [7], 0.6 nM.
As to `COC(=O)N[C@H](C(=O)N1CCC[C@H]1c1ncc(-c2ccc3c(c2)OC(c2ccc(-c4ccc5cncn5c4)cc2)n2c-3cc3cc(-c4cnc([C@@H]5CCCN5C(=O)[C@@H](NC(=O)OC)C(C)C)[nH]4)ccc32)[nH]1)C(C)C` (mixture of isomers), the EC50 in [1] is 0.03 nM; in [2], 0.01 nM; in [3], 0.04 nM; in series [12], 4 nM; in [4], 1 nM; in series [5], 0.03 nM. Besides, the EC50 in series [6] came out at 20 nM; in series [7], 2 nM.
Consider `COC(=O)N[C@H](C(=O)N1CCC[C@H]1c1ncc(-c2ccc3c(c2)OC(c2cccnc2)n2c-3cc3cc(-c4cnc([C@@H]5CCCN5C(=O)[C@@H](NC(=O)OC)C(C)C)[nH]4)ccc32)[nH]1)C(C)C` (mixture of isomers), for which the EC50 in series [1] came to 0.005 nM; in series [2] it was 0.009 nM; in [3], 0.04 nM; in series [12], 2 nM; in [4] it was 2 nM; in [5], 0.03 nM. In addition, the EC50 in series [6] worked out at 7 nM; in [7], 0.9 nM.
Regarding `COC(=O)N[C@H](C(=O)N1CCC[C@H]1c1ncc(-c2ccc3c(c2)OC(c2cccc(C(F)(F)F)c2)n2c-3cc3cc(-c4cnc([C@@H]5CCCN5C(=O)[C@@H](NC(=O)OC)C(C)C)[nH]4)ccc32)[nH]1)C(C)C` (mixture of isomers), the EC50 in series [1] is 0.003 nM; in series [2], 0.003 nM; in series [3] it was 0.003 nM; in series [12], 2 nM; in series [4] it was 0.04 nM; in series [5] it was 0.01 nM. Besides, the concentration giving a half-maximal response (EC50) in series [6] stood at 2 nM; in series [7] it was 0.62 nM.
Take `COC(=O)N[C@H](C(=O)N1CCC[C@H]1c1ncc(-c2ccc3c(c2)OC(c2ccc(-c4c(C)nn(C)c4C)cc2)n2c-3cc3cc(-c4cnc([C@@H]5CCCN5C(=O)[C@@H](NC(=O)OC)C(C)C)[nH]4)ccc32)[nH]1)C(C)C` (mixture of isomers): the EC50 in series [1] turned out to be 0.04 nM; in series [2] it was 0.02 nM; in [3], 0.02 nM; in series [12] it was 5 nM; in series [4], 0.2 nM; in [5], 0.03 nM. Besides, the EC50 in series [6] was 15 nM; in [7], less than 2 nM.
